Reference: US7115632B1, “Sulfonyl aryl or heteroaryl hydroxamic acid compounds” (priority 1999, dated 2006)
Where a name gives a salt, the structure may show the parent alone.

Tests used:
[1] = system: solid tumor cancers (colorectal, pancreatic, ovarian, prostate); conditions: cited from earlier work
[2] = target: T1, MMP-13 (Homo sapiens, UniProt P45452); test: In vitro metalloprotease inhibition, fluorogenic MCA peptide substrate; format: biochemical; conditions: Inhibition Table B
T1 construct: made in house; host or cells: insect cells, baculovirus expression

[3] = target: MT1-MMP (Homo sapiens, UniProt P50281); test: as above; format: biochemical; conditions: Inhibition Table B
Procedure: (§1) Briefly, 4-aminophenylmercuric acetate (APMA) or trypsin-activated MMPs were incubated with various concentrations of the inhibitor compound at room temperature for 5 minutes.
(§2) MCA-ProLeuGlyLeuDpaAlaArgNH2, wherein MCA is methoxycoumarin and Dpa is 3-(2,4-dinitrophenyl)-L-2,3-diaminopropionyl alanine.
(§3) The buffer used for assays contained 100 mM Tris-HCl, 100 mM NaCl, 10 mM CaCl2 and 0.05 percent polyethyleneglycol (23) lauryl ether at a pH value of 7.5.
(§4) The ID50 values were calculated from those values.

[4] = target: MMP-8 (Homo sapiens, UniProt P22894); test: as above; format: biochemical; conditions: Inhibition Table B
Chain of MMP-8 (P22894 101-467, species assumed): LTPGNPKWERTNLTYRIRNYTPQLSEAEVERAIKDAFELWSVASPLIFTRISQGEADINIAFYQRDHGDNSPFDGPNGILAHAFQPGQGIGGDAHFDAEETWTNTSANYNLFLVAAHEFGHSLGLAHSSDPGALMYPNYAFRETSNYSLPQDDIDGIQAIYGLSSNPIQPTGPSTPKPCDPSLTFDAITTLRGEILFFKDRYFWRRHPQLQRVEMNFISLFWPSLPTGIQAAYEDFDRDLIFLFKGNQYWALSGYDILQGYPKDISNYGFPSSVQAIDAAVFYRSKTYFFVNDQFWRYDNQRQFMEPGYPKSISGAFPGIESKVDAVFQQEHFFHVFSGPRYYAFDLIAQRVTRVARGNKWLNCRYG
Procedure: as §1, §2, §3, §4

[5] = target: T2, MMP-9 (Homo sapiens, UniProt P14780); test: as above; format: biochemical; conditions: Inhibition Table B
T2 construct: made in house; host or cells: transfected HT-1080 cells (provided by Dr. Harold Welgus)
T2 sequence (P14780 107-707 limits assumed): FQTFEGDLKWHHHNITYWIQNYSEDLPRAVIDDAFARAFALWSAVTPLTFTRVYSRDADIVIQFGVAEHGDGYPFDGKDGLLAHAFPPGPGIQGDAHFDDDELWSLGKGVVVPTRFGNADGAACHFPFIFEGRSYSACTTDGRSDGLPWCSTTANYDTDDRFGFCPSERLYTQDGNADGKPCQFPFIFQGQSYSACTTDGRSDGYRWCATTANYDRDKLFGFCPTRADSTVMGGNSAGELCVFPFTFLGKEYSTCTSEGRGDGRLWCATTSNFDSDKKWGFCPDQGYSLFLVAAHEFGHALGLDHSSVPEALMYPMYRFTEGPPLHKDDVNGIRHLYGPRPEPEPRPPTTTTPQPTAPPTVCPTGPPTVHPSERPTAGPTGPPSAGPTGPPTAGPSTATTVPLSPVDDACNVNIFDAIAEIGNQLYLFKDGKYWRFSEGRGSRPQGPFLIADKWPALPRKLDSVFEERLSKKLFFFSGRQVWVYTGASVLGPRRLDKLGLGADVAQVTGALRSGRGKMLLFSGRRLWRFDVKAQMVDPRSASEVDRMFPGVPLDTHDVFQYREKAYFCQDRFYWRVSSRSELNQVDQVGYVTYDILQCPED
Procedure: as §1
MMP-1 expressed in transfected HT-1080 cells was provided by Dr. Harold Welgus of Washington University, St. Louis, Mo. The enzyme was also activated using APMA and was then purified over a hydroxamic acid column. Dr. Welgus also provided transfected HT-1080 cells that expressed MMP-9. Transfected cells that expressed MMP-2 were provided by Dr. Gregory Goldberg, also of Washington University. Further specifics for preparation and use of these enzymes can be found in the scientific literature describing these enzymes. See, for example, Enzyme Nomenclature, Academic Press, San Diego, Calif. (1992) and the citations therein, and Frije et al., J. Biol. Chem., 26(24): 16766–16773 (1994).
as §2, §3, §4

[6] = target: T3, MMP-2 (Homo sapiens, UniProt P08253); test: as above; format: biochemical; conditions: Inhibition Table B
T3 construct: made in house; provided by Dr. Gregory Goldberg, Washington University
T3 sequence (P08253 110-660): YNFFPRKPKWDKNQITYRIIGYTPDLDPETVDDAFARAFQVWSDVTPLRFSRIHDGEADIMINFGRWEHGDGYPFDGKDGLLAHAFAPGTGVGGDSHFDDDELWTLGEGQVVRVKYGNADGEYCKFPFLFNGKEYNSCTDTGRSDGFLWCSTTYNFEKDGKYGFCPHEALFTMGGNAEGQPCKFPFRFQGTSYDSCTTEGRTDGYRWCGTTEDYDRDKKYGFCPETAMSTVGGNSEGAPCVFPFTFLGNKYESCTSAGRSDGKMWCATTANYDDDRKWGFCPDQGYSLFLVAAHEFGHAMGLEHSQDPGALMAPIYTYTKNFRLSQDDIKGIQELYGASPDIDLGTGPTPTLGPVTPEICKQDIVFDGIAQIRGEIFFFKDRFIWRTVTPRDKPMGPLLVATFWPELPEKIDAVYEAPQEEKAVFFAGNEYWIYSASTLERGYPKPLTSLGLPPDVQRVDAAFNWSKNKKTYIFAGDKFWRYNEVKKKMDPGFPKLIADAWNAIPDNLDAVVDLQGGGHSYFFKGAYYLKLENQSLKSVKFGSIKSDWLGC
Source text: (§5) The expressed enzyme was purified first over a heparin agarose column and then over a chelating zinc chloride column. The proenzyme was activated by APMA for use in the assay.

[7] = target: MMP-3 (Homo sapiens, UniProt P08254); test: as above; format: biochemical; conditions: Inhibition Table B
Chain of MMP-3 (P08254 100-477, species assumed): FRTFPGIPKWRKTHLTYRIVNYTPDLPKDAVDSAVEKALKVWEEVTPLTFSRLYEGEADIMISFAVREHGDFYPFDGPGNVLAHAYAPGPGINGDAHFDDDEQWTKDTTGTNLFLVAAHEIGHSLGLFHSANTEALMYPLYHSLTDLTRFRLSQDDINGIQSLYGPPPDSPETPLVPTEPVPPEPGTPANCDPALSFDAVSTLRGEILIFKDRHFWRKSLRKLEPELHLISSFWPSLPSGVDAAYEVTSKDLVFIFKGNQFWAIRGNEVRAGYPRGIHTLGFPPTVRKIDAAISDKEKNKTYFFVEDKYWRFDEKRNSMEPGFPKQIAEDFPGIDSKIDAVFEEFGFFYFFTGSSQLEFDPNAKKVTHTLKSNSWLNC

[8] = target: T4, MMP-1 (Homo sapiens, UniProt P03956); test: as above; format: biochemical; conditions: Inhibition Table B
T4 construct: made in house; host or cells: transfected HT-1080 cells (provided by Dr. Harold Welgus, Washington University)
T4 sequence (P03956 100-469): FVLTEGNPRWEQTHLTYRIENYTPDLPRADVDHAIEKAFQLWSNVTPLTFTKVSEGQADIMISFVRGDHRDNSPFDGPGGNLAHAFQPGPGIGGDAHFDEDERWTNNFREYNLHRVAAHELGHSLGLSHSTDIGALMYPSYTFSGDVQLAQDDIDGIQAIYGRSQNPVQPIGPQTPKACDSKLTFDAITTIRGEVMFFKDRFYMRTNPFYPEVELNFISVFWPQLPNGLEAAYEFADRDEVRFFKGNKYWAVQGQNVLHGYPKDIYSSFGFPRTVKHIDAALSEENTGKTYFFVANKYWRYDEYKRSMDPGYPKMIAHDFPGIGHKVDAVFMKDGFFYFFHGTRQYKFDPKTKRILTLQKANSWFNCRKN
Source text: as §5

SMILES | most common drug-related toxicity ([1]; clinical trials, patients) | rise of cancer-specific antigens (surrogate markers for biological activity) ([1]; patients with advanced, rapidly progressive, treatment-refractory solid tumor cancers) | IC50 [2] [nM] | IC50 [3] [nM] | IC50 [4] [nM] | IC50 [5] [nM] | IC50 [6] [nM] | IC50 [7] [µM] | IC50 [8] [µM]
CNC(=O)[C@@H](NC(=O)[C@H](CC(C)C)[C@H](O)C(=O)NO)C(C)(C)C [marimastat, Marimastat] | musculoskeletal pain and stiffness | dose-related reduction in the rise of cancer-specific antigens |  |  |  |  |  |  | 
COc1ccc(N2CCN(S(=O)(=O)c3ccc(OC)c(OC)c3C(=O)NO)CC2)cc1 [Example 41, N-Hydroxy-2,3-dimethoxy-6-[[4-(4-methoxyphenyl)-1-piperazinyl]sulfonyl]benzamide, monohydrochloride] |  |  | 100 | 4000 | 120 | 470 | 6 | 8 | > 10
O=C(NO)c1c(S(=O)(=O)N2CCC(Oc3ccc(C(F)(F)F)cc3)CC2)ccc2c1OCO2 [Example 36] |  |  | 18 | 300 | 12.2 | 8 | 3 | 0.6 | > 10
